This note sets out measurements from PubChem BioAssay (NCI).

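These data come from cells grown in 96-well plates and exposed to compound for 48 hours at five concentrations. GI50: concentration for 50% inhibition of growth. TGI denotes the concentration required for complete inhibition of growth.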

Holding throughout (experiment): growth of human tumour cells (NCI), 48 h
Assay [1] concerns ACHN renal.
For assay [2], the system named is COLO 205 colon.
For assay [3], the system named is HL-60(TB) leukemia.
Assay [4] concerns NCI/ADR-RES ovarian.
In assay [5] the test system is OVCAR-5 ovarian.
The subject of assay [6] is SK-MEL-5 melanoma.
The test system of assay [7] is SK-OV-3 ovarian.
The test system of assay [8] is SR leukemia.
Assay [9] concerns CCRF-CEM leukemia.
The subject of assay [10] is RPMI-8226 leukemia.

On to `CCCCCCCCCCCCCCCC1=NCCN1`, for which the GI50 in assay [1] is 1.85 µM; in [2] it was 1.86 µM; in [3], 1.73 µM; in assay [4], 2.16 µM; in [5], 2.26 µM; in assay [6] it was 1.81 µM. The GI50 was 2.23 µM in assay [7] and 1.84 µM in [8]. Besides, the TGI in [1] is 3.7 µM; in [2], 3.66 µM; in assay [3], 3.89 µM; in [4] it was 5.09 µM; in assay [5], 5.53 µM; in assay [6], 3.24 µM. Further, the results for the TGI in assay [7] and in assay [8] were 4.85 µM and 4.31 µM, respectively.
For the compound `COC(=O)c1ccc2c(c1)C(=O)c1c-2n(CCCCl)c(=O)c2cc([N+](=O)[O-])ccc12`, the GI50 in assay [1] is 45.2 µM; in assay [9], 52.8 µM; in assay [2] it was greater than 100 µM; in [3], greater than 100 µM; in [4], greater than 100 µM; in assay [5], greater than 100 µM. Also, the GI50 in [10] was 84.5 µM; in assay [6], 85.7 µM; in [7] it was greater than 100 µM; in assay [8], 4.94 µM. Besides, the TGI in [1], in [9], in assay [2], in assay [3], in [4] and in assay [5] was greater than 100 µM in each case. The TGI in [10], in assay [6], in [7] and in assay [8] was greater than 100 µM in each case.
Consider `CC1=C2CC(C)(C)/C=C\C(=O)/C(C)=C\C3=C[C@H](C)C[C@]3(O2)C1=O`, for which the TGI was determined as 2.9 µM in [1]; 0.661 µM in [9]; 9.27 µM in [2]; 2.43 µM in assay [3]; 7.77 µM in assay [4]; 3.37 µM in assay [5]. In addition, the TGI in [10] is 1.51 µM; in [6], 8.06 µM; in [7], 24.6 µM; in assay [8], 0.826 µM.
`COc1ccc(C#Cc2ccc(=O)oc2-c2cc(OC)c(OC)c(OC)c2)cc1O`: the GI50 in assay [1] is 17.2 µM; in assay [9] it was 6.95 µM; in assay [2] it was 37.3 µM; in assay [3], 2.13 µM; in assay [4], 2.6 µM; in assay [5] it was 24 µM. The GI50 in [10] was 7.83 µM; in assay [6], 0.654 µM; in assay [7], 6.58 µM; in assay [8], 0.225 µM. Further, the TGI in [1] is greater than 100 µM; in assay [9], greater than 100 µM; in [2], greater than 100 µM; in [3] it was 17.4 µM; in assay [4], greater than 40.6 µM; in assay [5], greater than 100 µM. Further, the TGI in assay [10] is greater than 88 µM; in assay [6], greater than 46.1 µM; in assay [7] it was greater than 83.1 µM; in assay [8], 18.7 µM.
Consider `O=C(CC1(O)C(=O)N(Cc2ccccc2)c2ccc(Cl)cc21)c1ccc(C(=O)NCC2CCC3(CC2)OOC2(CCCCC2)OO3)cc1` (stereo not given), for which the GI50 in [1] is 0.18 µM; in assay [9], 0.274 µM; in [2], 0.626 µM; in assay [4] it was 0.271 µM; in assay [5], 0.644 µM; in assay [10], 0.462 µM. In addition, the GI50 in assay [6] was 1.89 µM; in assay [7], 3.48 µM; in [8], 0.214 µM. Further, the TGI in assay [1] amounted to 0.357 µM; in [9] it was 0.662 µM; in [2], 1.66 µM; in [4], 0.833 µM; in assay [5], 6.28 µM; in assay [10], 2.18 µM. For the same compound, the values for the TGI in assay [6], in assay [7] and in assay [8] were 4.56 µM, greater than 21.1 µM and 0.531 µM, respectively.
For the compound `COC(=O)C1=C(O)[C@H](C(=O)OC)C2(O)C(C(=O)OC)[C@H](c3ccc(OC(=O)C(C)c4ccccc4)cc3)C[C@@H]1[C@@H]2C(=O)OC` (stereo not given in full), the GI50 in assay [1] was 19.2 µM; in assay [2], 13.7 µM; in assay [3], 43.3 µM; in assay [4] it was greater than 50 µM; in assay [5], greater than 50 µM; in [10], 18.8 µM. In addition, the GI50 in [6] was 8.53 µM; in [7], 33.3 µM; in assay [8], 29.9 µM. For the same compound, the TGI in assay [1] is greater than 50 µM; in [2], 36.3 µM; in assay [3], greater than 50 µM; in [4] it was greater than 50 µM; in assay [5], greater than 50 µM; in assay [10] it was greater than 50 µM. The TGI was 23 µM in assay [6], greater than 50 µM in assay [7] and greater than 50 µM in [8].
Regarding `COc1ccc(/C=C2\CN(C(=O)C(Cl)Cl)C/C(=C\c3ccc(OC)cc3)C2=O)cc1`, the GI50 is 1.67 µM in assay [1]; 0.528 µM in assay [9]; 0.791 µM in assay [3]; 2 µM in assay [4]; 4.2 µM in assay [7]; 0.357 µM in [8]. The TGI in assay [1] was 4.7 µM; in assay [9] it was greater than 100 µM; in assay [3], 7.52 µM; in assay [4], 15.1 µM; in [7], greater than 100 µM; in assay [8], greater than 100 µM.
Take `N#Cc1c(NCc2ccccc2)nc(NCc2ccccc2)c(C#N)c1-c1ccc(O)cc1`: the GI50 in [1] was 16.9 µM; in assay [9], 27.4 µM; in assay [2], 36.3 µM; in assay [4], 47 µM; in assay [5] it was 60.3 µM; in [10] it was 21.9 µM. The GI50 in assay [6] was 15.3 µM; in [7] it was 34.5 µM; in assay [8] it was 7.09 µM. Further, the TGI is 57.1 µM in [1]; greater than 100 µM in [9]; greater than 100 µM in [2]; greater than 100 µM in assay [4]; greater than 100 µM in [5]; greater than 100 µM in [10]. Moreover, the TGI in [6] is 34.3 µM; in assay [7], greater than 100 µM; in [8] it was 91.7 µM.
`CSC(=NC#N)S/C=C/C(=O)c1ccccc1`: the GI50 was 28.6 µM in [1]; 1.77 µM in assay [9]; 35.2 µM in assay [2]; 31.3 µM in assay [4]; 62 µM in assay [5]; 12.3 µM in assay [10]. The GI50 in assay [6] was 45.9 µM; in [7], greater than 100 µM; in assay [8], 12.9 µM. The TGI was 76.9 µM in [1]; 15 µM in assay [9]; greater than 100 µM in assay [2]; 99.3 µM in assay [4]; greater than 100 µM in assay [5]; 34.7 µM in [10]. Also, the values for the TGI in assay [6], in assay [7] and in assay [8] were greater than 100 µM, greater than 100 µM and 69.4 µM, respectively.
